Laboratory results taken from PubChem BioAssay AID2060506 (Molecular Pharmacology Branch, DTP, NCI, 2025).
Values joined by “and” are separate entries in the source; they are usually repeats but may differ in a detail not shown here. Identical values can stand only once.

System: 598228-144-R-J1-PDC complex spheroid viability
Assay: Anticancer human tumor 598228-144-R-J1-PDC patient-derived serous endometrial adenocarcinoma cell line growth inhibition [GQUAD]
Settings: for viability, T/C: stronger effect = lower value; active means viability on the fitted dose curve at most 10% of control; inactive means the rest
From the text: DNA G-quadruplex Stabilizer Agents in Combinations in Complex Spheroids
A high-throughput screen of multi-cell type tumor spheroids was designed to identify active combinations of DNA G-quadruplex stabilizer agents and targeted small molecules. Complex spheroids include a stromal component modeled by human endothelial cells (HUVEC) and fibroblasts modeled by human mesenchymal stem cells (MSCs). The concentration ranges selected for each drug and investigational agent were based upon clinically achievable concentrations if the clinical Cmax of the agent was known.
Compounds. The drugs and investigational agents: pidnarulex (CX-5461; NSC782164), APTO-253 (NSC789042), BRACO-19 (NSC847499), peposertib (NSC802822), ceralasertib (NSC780249), elimusertib (NSC800525), camonsertib (NSC841442), AZD-1390 (NSC803789), olaparib (NSC753686), talazoparib (NSC767125), ART-558 (NSC835418), sotorasib (NSC818433), MRTX-1133 (NSC836407), SN-38 (NSC673596), topotecan (NSC609699), etoposide (NSC141540), doxorubicin (NSC123127), gemcitabine (NSC613327), 5-fluorouracil (NSC19893), paclitaxel (NSC125973), vemurafenib (NSC761431), panobinostat (NSC761190), R-306465 (JNJ-16241199; NSC773264), adavosertib (NSC754352), TP-3654 (NSC805149), carboplatin (NSC241240), KSQ-4279 (NSC840948), and staurosporine (NSC755774) were obtained from the National Cancer Institute (NCI) Developmental Therapeutics Program Chemical Repository (34). The FDA-approved anticancer drug set is available from the NCI Developmental Therapeutics Program. […] The stock solutions were prepared in dimethyl sulfoxide (DMSO, Sigma-Aldrich, St. Louis, MO, cat. D2650) at 800-fold the tested concentration and stored at -70 degrees C prior to their use. All drugs and investigational agents were tested over a range starting from a high concentration at or near the clinical Cmax and decreasing in half-log increments. If the clinical Cmax for an agent had not been determined, the highest concentration tested was 10 microM.
2.3 Cell Culture. All cells were maintained in an incubator at 37 degrees C and 5% CO2 with 95% humidity. The PDC lines were cultured according to standard operating procedures established by the NCI PDMR. All PDCs were thawed and cultured in Matrigel-coated flasks prepared with a working solution of 1X Ham's F-12 nutrient mix, without supplementation (Invitrogen, cat. 11765054), 100 U/mL penicillin-streptomycin (Invitrogen, cat. 15140122), and 2.5% Matrigel (Corning Inc., cat. 354248) for the first three passages. The 857933-349-R-J2-PDC line was cultured in 6C/Colon 1B media, which includes advanced DMEM/F-12 (Thermo Fisher Scientific, cat. 12634028), 10 mM HEPES (Thermo Fisher Scientific, cat. 15630080), 1X GlutaMAX supplement (Thermo Fisher Scientific, cat. 35050061), 0.1 mg/mL primocin (InvivoGen, cat. ant-pm-2), 10% defined fetal bovine serum, heat inactivated (HyClone Laboratories Inc., cat. SH30070.03HI), 50% L-WRN conditioned media (ATCC, cat. CRL-3276), 1.25 mM N-Acetyl-L-cysteine (Sigma-Aldrich, cat. A9165), 10 mM nicotinamide (Sigma-Aldrich, cat. N0636), 1X B-27 supplement (Thermo Fisher Scientific, cat. 17504044), 1X N-2 supplement (Thermo Fisher Scientific, cat. 17502048), 10 microM Y-27632 dihydrochloride (Tocris Bioscience, cat. 1254), and 50 ng/mL human EGF recombinant protein (Thermo Fisher Scientific, cat. PHG0311). The 485176-168-R4-J1-PDC line was cultured in Panc media, which includes all 6C/Colon 1B media components plus 100 ng/mL human FGF-10 (Thermo Fisher Scientific, cat. 100-26), 500 nM SB-431542 (Selleckchem, cat. S1067), and gastrin (Tocris, cat. 3006).
[…]
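Further: spheroids exposed to the agents for one week before reading.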
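Wherever viability, T/C is given: percent of vehicle DMSO control viability so 100% = untreated growth.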

CCc1c2c(nc3ccc(O)cc13)-c1cc3c(c(=O)n1C2)COC(=O)[C@]3(O)CC
0.0173 µM and 0.0083 µM and 0.0232 µM: IC50 (curve of compound)
inactive: viability, T/C (compound 0.000999 µM) 72.2% and 58.7% and 67.3% | viability, T/C (compound 0.00316 µM) 58.9% and 53.5% and 66.5% | viability, T/C (compound 0.00999 µM) 59.5% and 47.4% and 56.2% | viability, T/C (compound 0.0316 µM) 43.9% and 44.5% and 44.3% | viability, T/C (compound 0.0999 µM) 28.2% and 31% and 38.2% | viability, T/C (compound 0.316 µM) 19.5% and 18.4% and 18.3%

C=CC(=O)N1CCN(c2nc(=O)n(-c3c(C)ccnc3C(C)C)c3nc(-c4c(O)cccc4F)c(F)cc23)C(C)C1 (stereo unspecified)
> 10 µM: IC50 (curve of compound)
inactive: viability, T/C (compound 0.0316 µM) 89% and 91.5% and 95% | viability, T/C (compound 0.1 µM) 106% and 107% and 112% | viability, T/C (compound 0.316 µM) 102% and 127% and 100% | viability, T/C (compound 1 µM) 155% and 112% (2×) | viability, T/C (compound 3.16 µM) 145% and 124% and 111% | viability, T/C (compound 10 µM) 113% and 108% and 106%

CCCS(=O)(=O)Nc1ccc(F)c(C(=O)c2c[nH]c3ncc(-c4ccc(Cl)cc4)cc23)c1F + Cc1[nH]c2ccc(F)cc2c1-c1nc2c3cccnc3c3ncccc3c2[nH]1
8.5 µM: IC50 (curve of first compound, second compound 0.0316 µM)
inactive: viability, T/C (second compound 0.0316 µM, first compound 0.0316 µM) 130% | viability, T/C (second compound 0.0316 µM, first compound 0.1 µM) 118% | viability, T/C (second compound 0.0316 µM, first compound 0.316 µM) 135% | viability, T/C (second compound 0.0316 µM, first compound 1 µM) 115% | viability, T/C (second compound 0.0316 µM, first compound 3.16 µM) 114% | viability, T/C (second compound 0.0316 µM, first compound 10 µM) 39.2% | viability, T/C (second compound 0.1 µM, first compound 0.0316 µM) 103% | viability, T/C (second compound 0.1 µM, first compound 0.1 µM) 112% | viability, T/C (second compound 0.1 µM, first compound 0.316 µM) 97.9% | viability, T/C (second compound 0.1 µM, first compound 1 µM) 106% | viability, T/C (second compound 0.1 µM, first compound 3.16 µM) 95.5% | viability, T/C (second compound 0.1 µM, first compound 10 µM) 43.6% | viability, T/C (second compound 0.316 µM, first compound 0.0316 µM) 122% | viability, T/C (second compound 0.316 µM, first compound 0.1 µM) 126% | viability, T/C (second compound 0.316 µM, first compound 0.316 µM) 102% | viability, T/C (second compound 0.316 µM, first compound 1 µM) 103% | viability, T/C (second compound 0.316 µM, first compound 3.16 µM) 129% | viability, T/C (second compound 0.316 µM, first compound 10 µM) 51.6% | viability, T/C (second compound 1 µM, first compound 0.0316 µM) 80.9% | viability, T/C (second compound 1 µM, first compound 0.1 µM) 71.9% | viability, T/C (second compound 1 µM, first compound 0.316 µM) 84.2% | viability, T/C (second compound 1 µM, first compound 1 µM) 76% | viability, T/C (second compound 1 µM, first compound 3.16 µM) 92.2% | viability, T/C (second compound 1 µM, first compound 10 µM) 48.8% | viability, T/C (second compound 3.16 µM, first compound 0.0316 µM) 39.3% | viability, T/C (second compound 3.16 µM, first compound 0.1 µM) 48.6% | viability, T/C (second compound 3.16 µM, first compound 0.316 µM) 43.1% | viability, T/C (second compound 3.16 µM, first compound 1 µM) 56.4% | viability, T/C (second compound 3.16 µM, first compound 3.16 µM) 56.2% | viability, T/C (second compound 3.16 µM, first compound 10 µM) 31.1% | viability, T/C (second compound 10 µM, first compound 0.0316 µM) 73.4% | viability, T/C (second compound 10 µM, first compound 0.1 µM) 65.1% | viability, T/C (second compound 10 µM, first compound 0.316 µM) 78.5% | viability, T/C (second compound 10 µM, first compound 1 µM) 70.4% | viability, T/C (second compound 10 µM, first compound 3.16 µM) 83.5% | viability, T/C (second compound 10 µM, first compound 10 µM) 45.1%
8.72 µM: IC50 (curve of first compound, second compound 0.1 µM)
< 0.0316 µM: IC50 (curve of first compound, second compound 3.16 µM)
> 10 µM: IC50 (curve of first compound, second compound 0.316 µM)
8.2 µM: IC50 (curve of first compound, second compound 10 µM)
9.54 µM: IC50 (curve of first compound, second compound 1 µM)
